Experimental data published in US8450318B2 (priority 2007, dated 2013).
Converted amounts (≈) assume the structure as drawn. Read-outs that look alike come from different tables or passages of the source.

Experiments:
HIV-2 = assay: Antiretrovirus assay, HIV-2
CEM cells = assay: Cytostatic/cytotoxic activity, inhibition of CEM cell proliferation; conditions: Table 1; for CC50: 50% cytostatic concentration, CEM cell proliferation
Influenza A H1N1 subtype = assay: Anti-influenza activity in MDCK cells, Influenza A H1N1; format: cell-based; conditions: for EC50: reference compounds; for EC50 Influenza A H1N1 subtype MTS: cell viability, formazan-based MTS assay; for EC50 Influenza A H1N1 subtype visual CPE score: visual scoring of the CPE
From the text: (§1) MDCK cells (Madin Darby canine kidney cells) have been used for the experiments shown in table 5 using standard procedures known in the art.

Influenza A H3N2 subtype = assay: Anti-influenza activity in MDCK cells, Influenza A H3N2; format: cell-based; conditions: for EC50: reference compounds; for EC50 Influenza A H3N2 subtype MTS: cell viability, formazan-based MTS assay; for EC50 Influenza A H3N2 subtype visual CPE score: visual scoring of the CPE
From the text: as §1

Influenza B = assay: Anti-influenza activity in MDCK cells, Influenza B; format: cell-based; conditions: for EC50: reference compounds; for EC50 Influenza B MTS: cell viability, formazan-based MTS assay; for EC50 Influenza B visual CPE score: visual scoring of the CPE
Feline Corona virus = assay: Activity on feline corona virus in CRFK cells; format: cell-based
CRFK cells [1] = conditions: cytotoxicity, feline corona virus test
[2] = tested on: human corona (SARS) virus; assay: microbe, parasite or virus in culture; format: cell-based; conditions: human corona (SARS) virus
CRFK cells [3] = conditions: cytotoxicity, human corona virus test
[4] = Table 1, CEM cells, prevention of syncytium formation by 50%, 4 to 5 days
[5] = MTS, read-out: EC50 Influenza A H1N1 subtype MTS
[6] = visual CPE, read-out: EC50 Influenza A H1N1 subtype visual CPE score
[7] = MTS, read-out: EC50 Influenza A H3N2 subtype MTS
[8] = visual CPE, read-out: EC50 Influenza A H3N2 subtype visual CPE score
[9] = MTS, read-out: EC50 Influenza B MTS
[10] = visual CPE, read-out: EC50 Influenza B visual CPE score

| Structure (SMILES) | EC50 HIV-1 (HIV-1; [4]) [mg/L] | EC50 HIV-2 (HIV-2; Table 1) [mg/L] | CC50 (CEM cells) [mg/L] | EC50 Influenza A H1N1 subtype MTS (Influenza A H1N1 subtype) [mg/L] | EC50 Influenza A H1N1 subtype visual CPE score (Influenza A H1N1 subtype) [mg/L] | EC50 Influenza A H3N2 subtype MTS (Influenza A H3N2 subtype) [mg/L] | EC50 Influenza A H3N2 subtype visual CPE score (Influenza A H3N2 subtype) [mg/L] | EC50 Influenza B MTS (Influenza B) [mg/L] | EC50 Influenza B visual CPE score (Influenza B) [mg/L] | further results |
| --- | --- | --- | --- | --- | --- | --- | --- | --- | --- | --- |
| Cc1ccc(NCc2c(C)c(CNc3ccc(C)cn3)c(C)c(CNc3ccc(C)cn3)c2C)nc1 [Compound 26] | >4 | >4 | 22.0 ± 8.2 (≈ 45.8 µM) | – | – | – | – | – | – | – |
| CCc1c(CNc2cc(C)cc(C)n2)c(CC)c(CNc2ccc3ccc(C)nc3n2)c(CC)c1CNc1ccc2ccc(C)nc2n1 [Co54] | – | – | – | – | – | – | – | – | – | EC50 HIV-1 (HIV-1; Table 1a): >2 mg/L; EC50 HIV-2 (HIV-2; Table 1a): >2 mg/L |
| CCc1c(CNc2cc(C)cc(C)n2)c(CC)c(CNc2ccc3ccc(C)nc3n2)c(CC)c1CNc1cc(C)cc(C)n1 [Co50] | – | – | – | – | – | – | – | – | – | EC50 HIV-1 (HIV-1; Table 1a): >2 mg/L; EC50 HIV-2 (HIV-2; Table 1a): >2 mg/L |
| CCc1c(CNc2cccc(CO)c2)c(CC)c(CNc2cc(C)cc(C)n2)c(CC)c1CNc1cc(C)cc(C)n1 [ABT6] | – | – | – | – | – | – | – | – | – | EC50 HIV-1 (HIV-1; Table 1a): >2 mg/L; EC50 HIV-2 (HIV-2; Table 1a): >2 mg/L |
| NC12CC3CC(CC(C3)C1)C2 [Amantadin, reference compound] | – | – | – | – | – | – | – | – | – | EC50 (Influenza A H1N1 subtype; [5]): 59.3 µM; EC50 (Influenza A H1N1 subtype; [6]): 58.5 µM; EC50 (Influenza A H3N2 subtype; [7]): 1.6 µM; EC50 (Influenza A H3N2 subtype; [8]): 4 µM; EC50 (Influenza B; [9]): > 100 µM; EC50 (Influenza B; [10]): > 100 µM |
| CCc1c(CNc2cccc(C(C)=NO)c2)c(CC)c(CNc2cc(C)cc(C)n2)c(CC)c1CNc1cc(C)cc(C)n1 [ABT5] | – | – | – | >4 | >4 | >4 | >4 | >4 | >4 | – |
| Cc1ccc(O)c(NC(=O)c2cc(C(=O)Nc3cc(C)ccc3O)cc(C(=O)Nc3cc(C)ccc3O)c2)c1 [Phe-Kresol] | – | – | – | >0.8 | >0.8 | >0.8 | >0.8 | >0.8 | >0.8 | – |
| CCc1c(CNc2cccc(C(C)=NO)c2)c(CC)c(CNc2cccc(C(C)=NO)c2)c(CC)c1CNc1cccc(C(C)=NO)c1 [Compound 28] | >4 | >4 | 10.0 ± 0.98 (≈ 15.4 µM) | – | – | – | – | – | – | – |
| CC(N)C12CC3CC(CC(C3)C1)C2 (stereo not shown) [Rimantadin, reference compound] | – | – | – | – | – | – | – | – | – | EC50 (Influenza A H1N1 subtype; [5]): 9.9 µM; EC50 (Influenza A H1N1 subtype; [6]): 8.9 µM; EC50 (Influenza A H3N2 subtype; [7]): 0.9 µM; EC50 (Influenza A H3N2 subtype; [8]): 2.1 µM; EC50 (Influenza B; [9]): > 100 µM; EC50 (Influenza B; [10]): > 100 µM |
| Cc1cc(C)c2ccc(NC(=O)c3cc(C(=O)Nc4ccc5c(C)cc(C)nc5n4)cc(C(=O)Nc4ccc5c(C)cc(C)nc5n4)c3)nc2n1 [Sc75] | – | – | – | >4 | >4 | >4 | >4 | >4 | >4 | – |
| Cc1ccc2ccc(NC(=O)c3cccc(C(=O)Nc4ccc5ccc(C)nc5n4)c3)nc2n1 [Sc74] | – | – | – | 9.6 (≈ 21.4 µM) | 15.1 ± 7.0 (≈ 33.7 µM) | 12.5 (≈ 27.9 µM) | 14.5 ± 7.8 (≈ 32.3 µM) | 9.9 (≈ 22.1 µM) | 10.9 ± 1.1 (≈ 24.3 µM) | Feline Corona virus EC50 (Feline Corona virus): 29.0 ± 4.8 mg/L; Feline Corona virus CC50 (CRFK cells [1]): >100 mg/L |
| CCc1c(CNc2ccc3ccc(C)nc3n2)c(CC)c(CNc2ccc3ccc(C)nc3n2)c(CC)c1CNc1ccc2ccc(C)nc2n1 [Compound 25] | 1.25 ± 0.35 (≈ 1.85 µM) | >20 | 81.7 ± 26.0 (≈ 121 µM) | >4 | >4 | >4 | >4 | >4 | >4 | Feline Corona virus EC50 (Feline Corona virus): 9.1 ± 0.4 mg/L; Human Corona virus EC50 [2]: 20 ± 5 mg/L; Feline Corona virus CC50 (CRFK cells [1]): 92 ± 9 mg/L; Human Corona virus CC50 (CRFK cells [3]): >100 mg/L; cytotoxicity (in words) (CEM cells): low cytotoxicity |
| CCc1c(CN)c(CC)c(CNc2cc(C)cc(C)n2)c(CC)c1CNc1cc(C)cc(C)n1 [Compound 29] | >0.16 | >0.8 | 1.69 ± 0.02 (≈ 3.68 µM) | >0.8 | >0.8 | >0.8 | >0.8 | >0.8 | >0.8 | – |
